US8697692B2, “Pyrrolo [3,2-c] pyridine-4-one 2-indolinone protein kinase inhibitors” (Shanghai Hengrui Pharmaceutical Co., Ltd., priority 2006, dated 2014)

Legend:
HUVEC cell = assay: Cell Proliferation Inhibition VEGF-R2 Assay (SRB method); type: cell-based, homo sapient; settings: Homo sapiens; HUVEC cells, 72 hours exposure, Sulforhodamine B; read-out: IC50 (VEGFR/HUVEC)
Text: The following in vitro assay may be used to determine the level of activity and effect of different compounds of the present invention on the proliferation inhibition (cell toxic) of endothelium growth factor receptor (VEGFR) high expressing homo […] cancer cell-HUVEC cell. The cellular assay described here measure the compounds of their anti-angiogenesis and proliferation inhibition activity and effect through […] on the cancer cells in vitro. The effect and activity is represented by the IC50 value that kills the cancer cell. […] The homo […] highly express […] are chosen and seeded to 96-well cell culture plate at a suitable concentration (exp 5000 cells/ml medium). The cells then are cultured in carbon dioxide (CO2) incubator till when they confluence to about 85%. Then, the cell culture medium is replaced by fresh one with tested compounds added in it at serial concentrations (general 6 to 7 concentrations). Then the cells are put back to the culture and cultured for continuous 72 hours. 72 hours later, the cell exposed to compounds and control cell are assayed for their proliferation using Sulforhodamine B (SRB) method. […] Dimethyl sulfoxide (Sinophma chemical reagent company, catalog No. T20050806) • b. HUVEC cells (Purchased from Institute of biochemistry and cell biology) • c. […] Acetic Acid (Sinophma chemical reagent company, Catalog No. T20060508) • l. Trichloroacetic Acid (Sinophma chemical reagent company, Catalog No. T20060305) • m. […] Class II A/B3 Biological safety cabinet (ThermoForma Catalog No. HB0053-03) • o. […] Centrifuge (Fisher Scientific Marathon 8 k, Catalog No. 0027-02) • q. Novastar Plate reader (BMG Labtech, Catalog No. 700-0081) • r. […] Growing seeded 96-well plates at 37° C., 5% CO2, till 85% confluence. • 4. Prepare compounds stock solution, using DMSO solve candidate compounds to a concentration of 20 mM. […] Use cell culture medium (in this case, DMEM/F12+10% FBS) to dilute the compounds solution prepared above. Each DMSO serial concentration compound solution is diluted by 20 times with culture medium by adding 5 μl DMSO compound solution to 95 μl culture medium, then mix well by vortex. […] After HUVEC cell has attached to the dish bottom and confluence about 85%, change the culture medium with fresh DMEM/F12 plus 10% FBS. Each well added 180 μl medium, then add 20 μl medium solution of tested compounds prepared at step 5 to each well. For control group cell, add 20 μl culture medium containing 0.5% pure DMSO. […] Each 96-well plate, we can test 3 compounds with a control cell group. • 7. Put the culture plates back to incubator, culture for 72 hours at 37° C., 5% CO2. • 8. 72 hours later, remove cultures from incubator into sterile work area. • 9. Prepare fixative (50% Trichloroacetic Acid-TCA) by adding reagent grade water to the TCA, fix the cells by gently layering 50 μl of cold TCA solution on top of the growth medium. • 10. Incubate plates for 1 hour at 4° C. and then rinse with water several times to remove TCA, serum proteins, etc. Plates are air dried and stored until use. Bland background optical density is measured in wells incubated with growth medium without cells. • 11. Use 10% acetic acid solution to prepare 0.4% Sulforhodamine B solution. Add 50 μl sulforhodamine B solution to each well of 96-well plates. • 12. Allow cells to stain for 30 minutes. • 13. Prepared the wash solution of […] acetic acid. At the end of the staining period, the stain is removed and the cells rinsed quickly with 1% acetic acid. Repeat until unincorporated dye is removed. Keep wash times to a minimum to reduce desorption of protein-bound dye. After being rinsed, the cultures are air dried until no moisture is visible. • 14. The incorporated dye is then solubilized in a volume of Sulforhodamine B assay Solubilization solution (10 mM Tris) equal to the original volume of culture medium. Allow cultures to stand for 5 minutes at room temperature.

A431 cell = assay: Cell Proliferation Inhibition EGFR Assay (SRB method); type: cell-based, homo sapient; settings: Homo sapiens, A-431; A431 cells, 72 hours exposure, Sulforhodamine B; read-out: IC50 (A431)
Text: The following in vitro assay may be used to determine the level of activity and effect of different compounds of the present invention on the proliferation inhibition (cell toxic) of […] growth factor receptor (EGFR) high expressing homo […] cancer cell-A431 cell. The cellular assay described here measure the compounds of their anti-angiogenesis and proliferation inhibition activity and effect through EGFR on the cancer cells in vitro. The effect and activity is represented by the IC50 value that kills the cancer cell. […] The homo […] highly express EGFR are chosen and seeded to 96-well cell culture plate at a suitable concentration (exp 5000 cells/ml medium). The cells then are cultured in carbon dioxide (CO2) incubator till when they confluence to about 85%. Then, the cell culture medium is replaced by fresh one with tested compounds added in it at serial concentrations (general 6 to 7 concentrations). Then the cells are put back to the culture and cultured for continuous 72 hours. 72 hours later, the cell exposed to compounds and control cell are assayed for their proliferation using Sulforhodamine B (SRB) method. Compounds IC50 on tested cells are calculated by the data of inhibition rates of serial concentrations of the tested compounds. • a. Dimethyl sulfoxide (Sinophma chemical reagent company, catalog No. T20050806) • b. A431 cells (Purchased from Institute of biochemistry and cell biology) • c. Falcon 100 mm cell culture plates (Baton Dickison Labware, Baton Dickison and company, • Catalog No. 18677) • d. coming 96-well culture cluster (Corning Incorporated, Catalog No. 3599) • e. Fisher Pipette (Fisher scientific, Catalog No. 03-692-164) • f. DMEM/F12 cell medium (Gibco, Catalog No. 12400-024) • g. Fetal bovine serum, origin from Australia (Gibco, Catalog No. 10099-141) • h. […] Sulforhodamine B (Sigma, Catalog No. 3520-42-1) • k. Acetic Acid (Sinophma chemical reagent company, Catalog No. T20060508) • l. Trichloroacetic Acid (Sinophma chemical reagent company, Catalog No. T20060305) • m. Tris base (Amresco, Catalog No. 0826) • n. Class II A/B3 Biological safety cabinet (ThermoForma Catalog No. HB0053 03) • o. Series II water jacketed CO2 incubator (ThermoForma Model: 3111) • p. Centrifuge (Fisher Scientific Marathon 8 k, Catalog No. 0027-02) • q. Novastar Plate reader (BMG Labtech, Catalog No. 700 0081) • r. Orbital Shaker (Qilinbeier, Catalog No. TS-1) Protocol: […] Growing seeded 96-well plates at 37° C., 5% CO2, till 85% confluence. • 4. Prepare compounds stock solution, using DMSO solve candidate compounds to a concentration of 20 mM. […] Use cell culture medium (in this case, DMEM/F12+10% FBS) to dilute the compounds solution prepared above. Each DMSO serial concentration compound solution is diluted by 20 times with culture medium by adding 5 μl DMSO compound solution to 95 μl culture medium, then mix well by vortex. This promise that the DMSO concentration at that the A431 cell will exposed to will not surpass 0.5%. • 6. […] Each well added 180 μl medium, then add 20 μl medium solution of tested compounds prepared at step 5 to each well. For control group cell, add 20 μl culture medium containing 0.5% pure DMSO. […] Each 96-well plate, we can test 3 compounds with a control cell group. • 7. Put the culture plates back to incubator, culture for 72 hours at 37° C., 5% CO2. • 8. 72 hours later, remove cultures from incubator into sterile work area. • 9. Prepare fixative (50% Trichloroacetic Acid-TCA) by adding reagent grade water to the TCA, fix the cells by gently layering […] of cold TCA solution on top of the growth medium. • 10. Incubate plates for 1 hour at 4° C. and then rinse with water several times to remove TCA, serum proteins, etc. Plates are air dried and stored until use. Bland background optical density is measured in wells incubated with growth medium without cells. • 11. Use 10% acetic acid solution to prepare 0.4% Sulforhodamine B solution. Add 50 μl sulforhodamine B solution to each well of 96-well plates. • 12. […]

Row | Compound | IC50 (HUVEC cell) [nM] | IC50 (A431 cell) [nM]
1 | CCN(CC)CCN1CCc2[nH]c(/C=C3\C(=O)Nc4cc(N)c(F)cc43)c(C)c2C1=O [Example 7, 2-(6-Amino-5-fluoro-2-oxo-1,2-dihydro-indol-3-ylidenemethyl)-5-(2-diethylamino-ethyl)-3-methyl-1,5,6,7-tetrahydro-pyrrolo[3,2-c]pyridin-4-one] | 1380 | 10500
2 | CCN(CC)CCN1CCc2[nH]c(/C=C3\C(=O)Nc4cc(NC=O)c(F)cc43)c(C)c2C1=O [Example 8, N-{3-[5-(2-Diethylamino-ethyl)-3-methyl-4-oxo-4,5,6,7-tetrahydro-1H-pyrrolo[3,2-c]pyridine-2-ylmethylene]-5-fluoro-2-oxo-2,3-dihydro-1,1-indol-6-yl}-formamide] | 3140 | 370
3 | CCN(CC)CCN1CCc2[nH]c(/C=C3\C(=O)Nc4cc(NC(C)=O)c(F)cc43)c(C)c2C1=O [Example 9, N-{3-[5-(2-Diethylamino-ethyl)-3-methyl-4-oxo-4,5,6,7-tetrahydro-pyrrolo[3,2-c]pyridine-2-ylmethylene]-5-fluoro-2-oxo-2,3-dihydro-1H-indol-6-yl}-acetamide] | 5800 | 9290
4 | Cc1c(/C=C2\C(=O)Nc3cc(N)c(F)cc32)[nH]c2c1C(=O)N(CCN1CCCC1)CC2 [Example 14, 2-(6-Amino-5-fluoro-2-oxo-1,2-dihydro-indol-3-ylidenemethyl)-3-methyl-5-(2-pyrrolidin-1-yl-ethyl)-1,5,6,7-tetrahydro-pyrrolo[3,2-c]pyridin-4-one] | 1050 | 10700
5 | CCN(CC)CCN1CCc2[nH]c(/C=C3\C(=O)Nc4ccc(NC=O)cc43)c(C)c2C1=O [Example 33, N-{3-[5-(2-Diethylamino-ethyl)-3-methyl-4-oxo-4,5,6,7-tetrahydro-1H-pyrrolo[3,2-c]pyridine-2-ylmethylene]-2-oxo-2,3-dihydro-1H-indol-5-yl}-formamide] | 670 | 840
6 | CCN(CC)CCN1CCc2[nH]c(/C=C3\C(=O)Nc4ccc(-c5ccc(OC)cc5)cc43)c(C)c2C1=O [Example 38, 5-(2-Diethylamino-ethyl)-2-[5-(4-methoxy-phenyl)-2-oxo-1,2-dihydro-indol-3-ylidenemethyl)-3-methyl-1,5,6,7-tetrahydro-pyrrolo[3,2-c]pyridin-4-one] | 1280 | 3890
